For one series, the system named is MCF7. In words: Cytotoxicity against human MCF7 cells by MTT assay. It counts as functional, cell-based. (In general: Tetrazolium assays rely on reduction of a dye to a coloured formazan, in cell work by metabolically active cells.)
A short description of series [1]: Selectivity ratio of IC50 for mouse L929 cells to IC50 for human HeLa cells. The format is toxicity. The settings on record: L929 cells versus HeLa cells, read-out: Ratio IC50.
The subject of another series is HeLa. The experiment in a line: Cytotoxicity against human HeLa cells by MTT assay. The format is functional, cell-based.
The nature of series [2]: Selectivity ratio of IC50 for mouse L929 cells to IC50 for human MCF7 cells. It counts as toxicity. The settings on record: L929 cells versus MCF7 cells, read-out: Ratio IC50.
The next series concerns A549. In words: Cytotoxicity against human A549 cells by MTT assay.
A further series relates to L929. In words: Cytotoxicity against mouse L929 cells by MTT assay.
A short description of series [3]: Selectivity ratio of IC50 for mouse L929 cells to IC50 for human A549 cells. The format is toxicity. The conditions noted are these: L929 cells versus A549 cells, read-out: Ratio IC50.

Each structure is given as a SMILES string.

Our source for the IC50 and selectivity ratio values is ChEMBL document CHEMBL4814027, “Synthesis and biological evaluation of naphthoquinone phenacylimidazolium derivatives” (Bioorg Med Chem Lett, 2021).

As usually defined, the IC50 is the concentration needed to halve the response being measured. The low end stands for higher potency, the high end for lower potency. `COc1ccc(C(=O)C[n+]2cn(C)c3c2C(=O)c2ccccc2C3=O)cc1`: the IC50 in the series with MCF7 worked out at 0.71 µM; in the series with HeLa, 1.6 µM; with A549 it was 0.24 µM; in the series on L929 it was 11.7 µM. For the same compound, the figures for the selectivity ratio in series [1], in series [2] and in series [3] were 7.31, 16.5 and 48.8, respectively.
As for `Cn1c[n+](CC(=O)c2ccc(Br)cc2)c2c1C(=O)c1ccccc1C2=O`, the IC50 is 7.3 µM with MCF7, 8.3 µM in the series on HeLa, 0.95 µM in the series with A549 and 20.7 µM in the series on L929. The selectivity ratio in series [1] is 2.49; in series [2], 2.84; in series [3], 21.8.
Take `Cn1c[n+](CC(=O)C(C)(C)C)c2c1C(=O)c1ccccc1C2=O`: the half-maximal inhibitory concentration (IC50) in the series on MCF7 came out at 7.6 µM; in the series with HeLa, 5.8 µM; with A549, 2.4 µM; in the series with L929, 27.4 µM. In addition, the selectivity ratio is 4.72 in series [1], 3.61 in series [2] and 11.4 in series [3].
For the compound `CC(C)Cn1c[n+](CC(=O)C(C)(C)C)c2c1C(=O)c1ccccc1C2=O`, the IC50 in the series on MCF7 amounted to 10.4 µM; in the series with HeLa, 9.4 µM; with A549, 3.3 µM; in the series with L929 it was 10.4 µM. Besides, the selectivity ratio in series [1] was 1.11; in series [2] it was 1; in series [3] it was 3.15.
For `CC(C)Cn1c[n+](CC(=O)c2ccccc2)c2c1C(=O)c1ccccc1C2=O`, the IC50 in the series on MCF7 worked out at 0.52 µM; in the series with HeLa it was 0.9 µM; with A549, 0.32 µM; with L929, 2.7 µM. Moreover, the values for the selectivity ratio in series [1], in series [2] and in series [3] were 3, 5.19 and 8.44, respectively.
For the compound `C#CCn1c[n+](CC(=O)c2ccc([N+](=O)[O-])cc2)c2c1C(=O)c1ccccc1C2=O`, the IC50 with MCF7 is 40.9 µM; with HeLa, 17.2 µM; with A549, 15.1 µM; in the series on L929 it was 19 µM. Also, the selectivity ratio was determined as 1.1 in series [1], 0.46 in series [2] and 1.26 in series [3].
With `CC(C)Cn1c[n+](CC(=O)c2ccco2)c2c1C(=O)c1ccccc1C2=O`, the IC50 with MCF7 came to 0.32 µM; in the series with HeLa it was 0.6 µM; in the series with A549, 0.37 µM; in the series on L929, 8.5 µM. For the same compound, the selectivity ratio in series [1] was determined as 14.2; in series [2] it was 26.6; in series [3], 23.
As to `CCCn1c[n+](CC(=O)c2ccc([N+](=O)[O-])cc2)c2c1C(=O)c1ccccc1C2=O`, the IC50 was determined as 8.3 µM with MCF7, 8.4 µM in the series with HeLa, 3 µM in the series on A549 and 24.2 µM with L929. Moreover, the selectivity ratio in series [1] was 2.88; in series [2] it was 2.92; in series [3], 8.07.
With `Cn1c[n+](CC(=O)c2ccccc2)c2c1C(=O)c1ccccc1C2=O`, the IC50 with MCF7 was 0.37 µM; in the series on HeLa, 1.5 µM; in the series with A549, 0.42 µM; in the series on L929 it was 29.9 µM. Besides, the selectivity ratio was 19.9 in series [1], 80.8 in series [2] and 71.2 in series [3].
Turning to `O=C(C[n+]1cn(C2CC2)c2c1C(=O)c1ccccc1C2=O)c1ccc([N+](=O)[O-])cc1`, the IC50 in the series on MCF7 was 60.4 µM; in the series on HeLa it was 22.2 µM; with A549 it was 12.3 µM; in the series with L929, 6.1 µM. In addition, the selectivity ratio in series [1] worked out at 0.27; in series [2], 0.1; in series [3], 0.5.
With `CN(C)C(=O)C[n+]1cn(C)c2c1C(=O)c1ccccc1C2=O`, the IC50 with MCF7 stood at 7.6 µM; with HeLa, 0.2 µM; with A549 it was 0.1 µM; with L929 it was 4.3 µM. The selectivity ratio in series [1] is 21.5; in series [2], 0.57; in series [3], 43.
In the case of `CC(C)Cn1c[n+](CC(=O)c2ccc(F)cc2)c2c1C(=O)c1ccccc1C2=O`, the IC50 with MCF7 came to 0.75 µM; in the series with HeLa, 0.41 µM; in the series with A549, 0.2 µM; in the series on L929, 16.4 µM. In addition, the selectivity ratio in series [1] was 40; in series [2], 21.9; in series [3] it was 82.
`CCn1c[n+](CC(=O)c2ccc([N+](=O)[O-])cc2)c2c1C(=O)c1ccccc1C2=O`: the IC50 with MCF7 turned out to be 16.7 µM; in the series with HeLa it was 8.8 µM; in the series with A549, 2.1 µM; in the series with L929, 27.7 µM. The results for the selectivity ratio in series [1], in series [2] and in series [3] were 3.15, 1.66 and 13.2, respectively.
As for `Cn1c[n+](CC(=O)c2ccc(Cl)cc2)c2c1C(=O)c1ccccc1C2=O`, the IC50 in the series with MCF7 is 4.9 µM; in the series with HeLa, 6.6 µM; in the series on A549, 1 µM; with L929 it was 14.2 µM. The results for the selectivity ratio in series [1], in series [2] and in series [3] were 2.15, 2.9 and 14.2, respectively.
Take `CC(C)Cn1c[n+](CC(=O)c2ccc(Cl)cc2)c2c1C(=O)c1ccccc1C2=O`: the IC50 in the series on MCF7 worked out at 0.66 µM; in the series on HeLa, 3.8 µM; in the series on A549, 3.3 µM; with L929, 9.4 µM. Besides, the selectivity ratio in series [1] turned out to be 2.47; in series [2], 14.2; in series [3], 2.85.
With `CC(C)Cn1c[n+](CC(=O)c2ccc(C(F)(F)F)cc2)c2c1C(=O)c1ccccc1C2=O`, the IC50 with MCF7 was determined as 7.6 µM; with HeLa, 9.2 µM; with A549 it was 7.8 µM; with L929 it was 26.3 µM. Moreover, the values for the selectivity ratio in series [1], in series [2] and in series [3] were 2.86, 3.46 and 3.37, respectively.
Consider `CC(C)Cn1c[n+](CC(=O)c2cccc([N+](=O)[O-])c2)c2c1C(=O)c1ccccc1C2=O`, for which the IC50 stood at 2.8 µM in the series on MCF7, 4.2 µM in the series with HeLa, 2.9 µM in the series with A549 and 16.2 µM with L929. Besides, the selectivity ratio came to 3.86 in series [1], 5.79 in series [2] and 5.59 in series [3].
Consider `CC(C)Cn1c[n+](CC(=O)N(C)C)c2c1C(=O)c1ccccc1C2=O`, for which the IC50 in the series with MCF7 worked out at 65.6 µM; in the series on HeLa, 12.8 µM; in the series on A549 it was 0.4 µM; with L929, 58.8 µM. In addition, the selectivity ratio in series [1] amounted to 4.59; in series [2], 0.9; in series [3], 147.
On to `CC(C)Cn1c[n+](CC(=O)c2ccc(Br)cc2)c2c1C(=O)c1ccccc1C2=O`, for which the IC50 worked out at 0.69 µM in the series with MCF7, 2.7 µM with HeLa, 2.4 µM in the series with A549 and 15.5 µM with L929. Besides, the selectivity ratio in series [1] amounted to 5.74; in series [2], 22.5; in series [3] it was 6.46.
As for `CC(C)Cn1c[n+](CC(=O)c2ccc3ccccc3c2)c2c1C(=O)c1ccccc1C2=O`, the IC50 was found to be 2.7 µM with MCF7, 4.3 µM in the series with HeLa, 1.3 µM in the series on A549 and 17.7 µM in the series with L929. The figures for the selectivity ratio in series [1], in series [2] and in series [3] were 4.12, 6.56 and 13.6, respectively.
Turning to `COc1ccc(C(=O)C[n+]2cn(CC(C)C)c3c2C(=O)c2ccccc2C3=O)cc1`, the IC50 in the series with MCF7 turned out to be 0.31 µM; in the series with HeLa, 0.08 µM; with A549 it was 0.19 µM; with L929 it was 2.3 µM. Besides, the selectivity ratio in series [1] stood at 28.8; in series [2], 7.42; in series [3] it was 12.1.
As for `CCCCn1c[n+](CC(=O)c2ccc([N+](=O)[O-])cc2)c2c1C(=O)c1ccccc1C2=O`, the IC50 came to 6.2 µM in the series with MCF7, 4.4 µM in the series on HeLa, 2.5 µM with A549 and 20 µM in the series with L929. For the same compound, the figures for the selectivity ratio in series [1], in series [2] and in series [3] were 4.55, 3.23 and 8, respectively.
With `CCC(C)n1c[n+](CC(=O)c2ccc([N+](=O)[O-])cc2)c2c1C(=O)c1ccccc1C2=O` (centres undefined), the IC50 amounted to 8.9 µM with MCF7, 8.4 µM with HeLa, 1.8 µM in the series on A549 and 27.1 µM in the series on L929. Also, the selectivity ratio was 3.23 in series [1], 3.04 in series [2] and 15.1 in series [3].
With `Cc1ccc(C(=O)C[n+]2cn(CC(C)C)c3c2C(=O)c2ccccc2C3=O)cc1`, the IC50 with MCF7 is 0.56 µM; in the series with HeLa, 1.8 µM; in the series on A549, 0.35 µM; in the series with L929, 4.8 µM. The figures for the selectivity ratio in series [1], in series [2] and in series [3] were 2.67, 8.57 and 13.7, respectively.
For `O=C(C[n+]1cn(-c2ccccc2)c2c1C(=O)c1ccccc1C2=O)c1ccc([N+](=O)[O-])cc1`, the IC50 in the series on MCF7 came out at 59.1 µM; in the series on HeLa it was 20.3 µM; with A549, 40.4 µM; in the series with L929 it was 31 µM. For the same compound, the selectivity ratio was found to be 1.53 in series [1], 0.52 in series [2] and 0.77 in series [3].
Regarding `Cn1c[n+](CC(=O)c2ccccc2[N+](=O)[O-])c2c1C(=O)c1ccccc1C2=O`, the IC50 turned out to be 18 µM in the series on MCF7, 8.7 µM in the series on HeLa, 0.5 µM in the series on A549 and 41.8 µM with L929. Further, the selectivity ratio turned out to be 4.8 in series [1], 2.32 in series [2] and 83.6 in series [3].
`Cn1c[n+](CC(=O)c2ccc(C(F)(F)F)cc2)c2c1C(=O)c1ccccc1C2=O`: the IC50 was 7.4 µM with MCF7, 9.2 µM with HeLa, 1.3 µM in the series on A549 and 19.3 µM with L929. In addition, the selectivity ratio in series [1] came out at 2.1; in series [2], 2.61; in series [3], 14.9.
